Assay results published in PubChem BioAssay AID248 (DTP/NCI, 2004).
Values joined by “and” are separate entries in the source; they are usually repeats but may differ in a detail not shown here. Identical values can stand only once. Toxic doses and inconclusive results are not listed. No stated cut-off is given here; in the data, active means T/C of 150% or more; inactive means T/C below 125%.

Tested on: L1210 leukemia ip in BDF1 mice, survival T/C
Test: NCI In Vivo Anticancer Drug Screen. Data for tumor model L1210 Leukemia (intraperitoneal) in B6D2F1 (BDF1) mice
Conditions: endpoint: mean survival time, higher = longer survival
How it was run: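 Mice bearing the transplanted tumor received compound or vehicle. Survival of the treated group was divided by that of the vehicle-treated control group to give the ratio.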

[1] = dose: 100.0 mg/kg/injection, schedule: Q01DX001 (ip), vehicle: carboxymethylcellulose (CMC)
[2] = dose: 400.0 mg/kg/injection, schedule: Q01DX001 (ip), vehicle: carboxymethylcellulose (CMC)
[3] = dose: 100.0 mg/kg/injection, schedule: Q01DX009 (ip), vehicle: saline with Tween-80
[4] = dose: 400.0 mg/kg/injection, schedule: Q01DX009 (ip), vehicle: saline with Tween-80

Measured: T/C

Clc1cccc(N=C/C=C/c2ccccc2)c1
inactive: [1] 105 % of control | dose: 100.0 mg/kg/injection, schedule: Q01DX009 (ip), vehicle: carboxymethylcellulose (CMC) 96 % of control and 100 % of control | dose: 100.0 mg/kg/injection, schedule: Q04DX002 (ip), vehicle: carboxymethylcellulose (CMC) 94 % of control and 100 % of control | dose: 100.0 mg/kg/injection, schedule: Q04DX003 (ip), vehicle: carboxymethylcellulose (CMC) 92 % of control | dose: 200.0 mg/kg/injection, schedule: Q01DX001 (ip), vehicle: carboxymethylcellulose (CMC) 96 % of control | dose: 200.0 mg/kg/injection, schedule: Q01DX009 (ip), vehicle: carboxymethylcellulose (CMC) 107 % of control and 92 % of control | dose: 200.0 mg/kg/injection, schedule: Q04DX002 (ip), vehicle: carboxymethylcellulose (CMC) 95 % of control and 97 % of control | dose: 200.0 mg/kg/injection, schedule: Q04DX003 (ip), vehicle: carboxymethylcellulose (CMC) 96 % of control | [2] 102 % of control | dose: 400.0 mg/kg/injection, schedule: Q01DX009 (ip), vehicle: carboxymethylcellulose (CMC) 103 % of control | dose: 400.0 mg/kg/injection, schedule: Q04DX002 (ip), vehicle: carboxymethylcellulose (CMC) 94 % of control and 98 % of control | dose: 400.0 mg/kg/injection, schedule: Q04DX003 (ip), vehicle: carboxymethylcellulose (CMC) 107 % of control

CCOC(=O)C1=C(OCOC)CCC(C(C)(C)C)C1 (centres undefined)
inactive: dose: 100.0 mg/kg/injection, schedule: Q01DX001 (ip), vehicle: Klucel (hydroxypropylcellulose) (HPC) 92 % of control | dose: 200.0 mg/kg/injection, schedule: Q01DX001 (ip), vehicle: Klucel (hydroxypropylcellulose) (HPC) 98 % of control

CNC(=O)O/N=C\C=N\OC(=O)NC
inactive: dose: 100.0 mg/kg/injection, schedule: Q01DX001 (ip), vehicle: saline 93 % of control | dose: 200.0 mg/kg/injection, schedule: Q01DX001 (ip), vehicle: saline 98 % of control | dose: 400.0 mg/kg/injection, schedule: Q01DX001 (ip), vehicle: saline 95 % of control

O=C(CC(=O)CC(O)(C(F)(F)F)C(F)(F)F)CC(O)(C(F)(F)F)C(F)(F)F
inactive: dose: 2.5 mg/kg/injection, schedule: Q01DX009 (ip), vehicle: saline 97 % of control | dose: 5.0 mg/kg/injection, schedule: Q01DX009 (ip), vehicle: saline 95 % of control

CCCCCCCCCCCCC1CCCC(C)C1 (centres undefined)
inactive: dose: 25.0 mg/kg/injection, schedule: Q01DX009 (ip), vehicle: saline with Tween-80 89 % of control | dose: 50.0 mg/kg/injection, schedule: Q01DX009 (ip), vehicle: saline with Tween-80 99 % of control | [3] 92 % of control | dose: 100.0 mg/kg/injection, schedule: Q04DX002 (ip), vehicle: saline with Tween-80 105 % of control and 90 % of control | dose: 200.0 mg/kg/injection, schedule: Q04DX002 (ip), vehicle: saline with Tween-80 104 % of control and 90 % of control | [4] 90 % of control | dose: 800.0 mg/kg/injection, schedule: Q04DX002 (ip), vehicle: saline with Tween-80 97 % of control

CCc1cc(C)cc(OC(=O)Nc2ccc(Cl)c(Cl)c2)c1
inactive: [3] 97 % of control | dose: 100.0 mg/kg/injection, schedule: Q04DX003 (ip), vehicle: Klucel (hydroxypropylcellulose) (HPC) 91 % of control | dose: 200.0 mg/kg/injection, schedule: Q01DX009 (ip), vehicle: saline with Tween-80 92 % of control | dose: 200.0 mg/kg/injection, schedule: Q04DX003 (ip), vehicle: Klucel (hydroxypropylcellulose) (HPC) 90 % of control | [4] 94 % of control | dose: 400.0 mg/kg/injection, schedule: Q04DX003 (ip), vehicle: Klucel (hydroxypropylcellulose) (HPC) 91 % of control

Cc1cc2oc(=O)c3c(c2c(O)c1CN1CCOCC1)CCCC3
inactive: [1] 96 % of control | [2] 98 % of control
